Data reported in PMC8202330, “Phosphorylation of the LIR Domain of SCOC Modulates ATG8 Binding Affinity and Specificity” (Journal of Molecular Biology, 2021).
Where two headings read alike, the source gives them in different places. One block for each molecule: values may come before it.

Key:
Type in all cases: binding
[1] = target: T1, LC3B (Homo sapiens, UniProt Q9GZQ8); assay: Bio-layer interferometry (BLI) affinity of SCOC LIR peptides for LC3B
T1 construct: GST (followed by 3C protease cleavage site) (N); made in house
Experimental: (§1) Bio-layer interferometry (BLI) is an optical analytical technique for measuring kinetics of interactions in real-time. The biosensor tip surface immobilized with a ligand is incubated with an analyte in solution, resulting in an increase in optical thickness at the biosensor tip and a wavelength shift, which is a direct measure of the change in thickness. Bio-layer interferometry analyses of ATG8s binding to immobilized biotinylated LIR peptides were performed using an Octet Red 96 (ForteBio). […] Ligands-loaded SA biosensors were then incubated with different concentrations of ATG8. All binding experiments were performed in solid-black 96-well plates containing 200 μl of solution (25 mM Tris pH 7.5, 150 mM NaCl, 0.5 mM TCEP, 0.1% Tween20, 1 mg/ml BSA) in each well at 25 °C with an agitation speed of 1000 rpm. Each measurement was repeated 2 to 3 times. Dissociation constants for LIR-ATG8 interactions were determined from plotting the increase in BLI response as a function of the protein concentration and fitting using non-linear regression of ForteBio 7.1 data analysis and GraphPad Prism 7 softwares.
(§2) The following peptides were synthesized using FMOC solid phase peptide chemistry by the Francis CRICK Institute peptide chemistry science technology platform: […]

[2] = target: T2, GABARAPL1 (Homo sapiens, UniProt Q9H0R8); assay: Bio-layer interferometry (BLI) affinity of SCOC LIR peptides for GABARAPL1
T2 construct: GST-GABARAPL1 full-length (pAL); GST (followed by 3C protease cleavage site) (N); made in house
Experimental: as §1, §2

[3] = target: T3, GABARAP (Homo sapiens, UniProt O95166); assay: Bio-layer interferometry (BLI) affinity of SCOC LIR peptides for GABARAP
T3 construct: fused with a Gly-Ser linker to full-length GABARAP (GST-GABARAP (pAL)); GST (followed by 3C protease cleavage site) (N); made in house
Experimental: as §1, §2

[4] = target: T4, GABARAPL2 (Homo sapiens, UniProt P60520); assay: Bio-layer interferometry (BLI) affinity of SCOC LIR peptides for GABARAPL2
T4 construct: GST (followed by 3C protease cleavage site) (N); made in house
Experimental: as §1, §2

[5] = target: T5, LC3A (Homo sapiens, UniProt Q9H492); assay: Bio-layer interferometry (BLI) affinity of SCOC LIR peptides for LC3A
T5 construct: GST (followed by 3C protease cleavage site) (N); made in house
Experimental: as §1, §2

[6] = target: T6, LC3C (Homo sapiens, UniProt Q9BXW4); assay: Bio-layer interferometry (BLI) affinity of SCOC LIR peptides for LC3C
T6 construct: GST (followed by 3C protease cleavage site) (N); made in house
Experimental: as §1, §2

[7] = BLI, wild-type and phosphorylated SCOC LIR peptides, Tris pH 7.5, 25 °C, average ± standard error of fit, n = 2–3, Figure 4B, read-out: Kd LC3B
[8] = BLI, wild-type and phosphorylated SCOC LIR peptides, Tris pH 7.5, 25 °C, average ± standard error of fit, n = 2–3, Figure 4B, read-out: Kd GAB-L1
[9] = BLI, wild-type and phosphorylated SCOC LIR peptides, Tris pH 7.5, 25 °C, average ± standard error of fit, n = 2–3, Figure 4B, read-out: Kd GAB
[10] = BLI, wild-type and phosphorylated SCOC LIR peptides, Tris pH 7.5, 25 °C, average ± standard error of fit, n = 2–3, Figure 4B, read-out: Kd GAB-L2
[11] = BLI, wild-type and phosphorylated SCOC LIR peptides, Tris pH 7.5, 25 °C, average ± standard error of fit, n = 2–3, Figure 4B, read-out: Kd LC3A
[12] = BLI, wild-type and phosphorylated SCOC LIR peptides, Tris pH 7.5, 25 °C, average ± standard error of fit, n = 2–3, Figure 4B, read-out: Kd LC3C
[13] = BLI, wild-type, truncated and phosphorylated SCOC LIR peptides, Tris pH 7.5, 25 °C, average ± standard error of fit, n = 2, Figure 6A, read-out: Kd GAB-L1
[14] = BLI, wild-type, truncated and phosphorylated SCOC LIR peptides, Tris pH 7.5, 25 °C, average ± standard error of fit, n = 2, Figure 6A, read-out: Kd GAB
[15] = BLI, wild-type, truncated and phosphorylated SCOC LIR peptides, Tris pH 7.5, 25 °C, average ± standard error of fit, n = 2, Figure 6A, read-out: Kd LC3A
[16] = BLI, wild-type, truncated and phosphorylated SCOC LIR peptides, Tris pH 7.5, 25 °C, average ± standard error of fit, n = 2, Figure 6A, read-out: Kd LC3C

T4 sequence (P60520 whole entry): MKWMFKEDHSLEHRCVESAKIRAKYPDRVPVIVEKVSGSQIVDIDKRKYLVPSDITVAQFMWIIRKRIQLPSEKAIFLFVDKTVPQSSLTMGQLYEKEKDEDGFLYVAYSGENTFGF
T6 sequence (Q9BXW4 whole entry): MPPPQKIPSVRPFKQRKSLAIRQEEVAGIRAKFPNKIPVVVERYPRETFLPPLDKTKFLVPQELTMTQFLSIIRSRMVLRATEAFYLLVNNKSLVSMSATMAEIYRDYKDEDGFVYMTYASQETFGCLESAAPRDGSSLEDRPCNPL
T2 sequence (Q9H0R8 whole entry): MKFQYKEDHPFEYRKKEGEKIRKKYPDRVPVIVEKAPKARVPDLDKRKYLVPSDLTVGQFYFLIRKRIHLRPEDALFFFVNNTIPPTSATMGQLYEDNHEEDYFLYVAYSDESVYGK
T3 sequence (O95166 whole entry, the tested form may be a part): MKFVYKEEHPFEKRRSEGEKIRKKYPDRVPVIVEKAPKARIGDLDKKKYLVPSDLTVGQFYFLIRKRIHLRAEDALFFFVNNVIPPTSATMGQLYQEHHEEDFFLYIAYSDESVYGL

SMILES: CC[C@H](C)[C@H](NC(=O)[C@H](CC(=O)O)NC(=O)[C@H](CC(=O)O)NC(=O)[C@H](C)NC(=O)[C@H](CC(C)C)NC(=O)[C@H](COP(=O)(O)O)NC(=O)[C@@H](NC(=O)[C@H](CC(N)=O)NC(=O)[C@@H](NC(=O)[C@H](Cc1ccccc1)NC(=O)[C@@H](NC(=O)[C@H](CO)NC(=O)[C@H](CC(=O)O)NC(=O)[C@H](CCC(=O)O)NC(=O)[C@H](CCC(=O)O)NC(=O)[C@H](CCC(=O)O)NC(=O)[C@H](CCC(=O)O)NC(=O)[C@@H](N)CCCCN)[C@@H](C)O)[C@@H](C)O)[C@@H](C)CC)C(=O)N[C@@H](CC(=O)O)C(=O)N[C@@H](Cc1c[nH]cn1)C(N)=O [pS18]
Kd [1, 7]: 48.9 ± 8.6 µM
Kd [2, 8]: 2.1 ± 0.1 µM
Kd [3, 9]: 3.9 ± 0.3 µM
Kd [4, 10]: 26 ± 2.4 µM
Kd [5, 11]: 4.9 ± 0.4 µM
Kd [6, 12]: 1.9 ± 0.2 µM

SMILES: CC[C@H](C)[C@H](NC(=O)[C@H](CC(=O)O)NC(=O)[C@H](CC(=O)O)NC(=O)[C@H](C)NC(=O)[C@H](CC(C)C)NC(=O)[C@H](CO)NC(=O)[C@@H](NC(=O)[C@H](CC(N)=O)NC(=O)[C@@H](NC(=O)[C@H](Cc1ccccc1)NC(=O)[C@@H](NC(=O)[C@H](CO)NC(=O)[C@H](CC(=O)O)NC(=O)[C@H](CCC(=O)O)NC(=O)[C@H](CCC(=O)O)NC(=O)[C@H](CCC(=O)O)NC(=O)[C@H](CCC(=O)O)NC(=O)[C@@H](N)CCCCN)[C@@H](C)O)[C@@H](C)OP(=O)(O)O)[C@@H](C)CC)C(=O)N[C@@H](CC(=O)O)C(=O)N[C@@H](Cc1c[nH]cn1)C(N)=O [pT15]
Kd [1]: 37.4 ± 4.5 µM
Kd [2]: 1.2 ± 0.1 µM
Kd [3]: 3 ± 0.3 µM
Kd [4]: 44 ± 4.5 µM
Kd [5]: 3.7 ± 0.5 µM
Kd [6]: 3.6 ± 0.4 µM

SMILES: CC[C@H](C)[C@H](NC(=O)[C@H](CC(N)=O)NC(=O)[C@@H](NC(=O)[C@H](Cc1ccccc1)NC(=O)[C@@H](NC(=O)[C@H](CO)NC(=O)[C@H](CC(=O)O)NC(=O)[C@H](CCC(=O)O)NC(=O)[C@H](CCC(=O)O)NC(=O)[C@H](CCC(=O)O)NC(=O)[C@H](CCC(=O)O)NC(=O)[C@@H](N)CCCCN)[C@@H](C)O)[C@@H](C)O)C(=O)N[C@@H](CO)C(=O)N[C@@H](CC(C)C)C(=O)N[C@@H](C)C(N)=O [SCOC aa 6-20]
Kd [2, 13]: 6.8 ± 0.6 µM
Kd [3, 14]: 8.5 ± 0.7 µM
Kd [5, 15]: 209 ± 25 µM
Kd [6, 16]: 21.3 ± 2.4 µM

SMILES: CC[C@H](C)[C@H](NC(=O)[C@H](CC(=O)O)NC(=O)[C@H](CC(=O)O)NC(=O)[C@H](C)NC(=O)[C@H](CC(C)C)NC(=O)[C@H](CO)NC(=O)[C@@H](NC(=O)[C@H](CC(N)=O)NC(=O)[C@@H](NC(=O)[C@H](Cc1ccccc1)NC(=O)[C@@H](NC(=O)[C@H](COP(=O)(O)O)NC(=O)[C@H](CC(=O)O)NC(=O)[C@H](CCC(=O)O)NC(=O)[C@H](CCC(=O)O)NC(=O)[C@H](CCC(=O)O)NC(=O)[C@H](CCC(=O)O)NC(=O)[C@@H](N)CCCCN)[C@@H](C)O)[C@@H](C)OP(=O)(O)O)[C@@H](C)CC)C(=O)N[C@@H](CC(=O)O)C(=O)N[C@@H](Cc1c[nH]cn1)C(N)=O [pS12, pT15]
Kd [1]: 4.8 ± 0.6 µM
Kd [2]: 0.37 ± 0.04 µM
Kd [3]: 1 ± 0.1 µM
Kd [4]: 8.3 ± 0.4 µM
Kd [5]: 0.7 ± 0.08 µM
Kd [6]: 0.41 ± 0.04 µM

SMILES: CC[C@H](C)[C@H](NC(=O)[C@H](CC(=O)O)NC(=O)[C@H](CC(=O)O)NC(=O)[C@H](C)NC(=O)[C@H](CC(C)C)NC(=O)[C@H](COP(=O)(O)O)NC(=O)[C@@H](NC(=O)[C@H](CC(N)=O)NC(=O)[C@@H](NC(=O)[C@H](Cc1ccccc1)NC(=O)[C@@H](NC(=O)[C@H](COP(=O)(O)O)NC(=O)[C@H](CC(=O)O)NC(=O)[C@H](CCC(=O)O)NC(=O)[C@H](CCC(=O)O)NC(=O)[C@H](CCC(=O)O)NC(=O)[C@H](CCC(=O)O)NC(=O)[C@@H](N)CCCCN)[C@@H](C)O)[C@@H](C)O)[C@@H](C)CC)C(=O)N[C@@H](CC(=O)O)C(=O)N[C@@H](Cc1c[nH]cn1)C(N)=O [pS12, pS18]
Kd [1, 7]: 7.8 ± 0.9 µM
Kd [2, 8]: 0.4 ± 0.03 µM
Kd [3, 9]: 1 ± 0.1 µM
Kd [4, 10]: 10.4 ± 0.5 µM
Kd [5, 11]: 1.6 ± 0.2 µM
Kd [6, 12]: 0.4 ± 0.04 µM

SMILES: CC[C@H](C)[C@H](NC(=O)[C@H](CC(=O)O)NC(=O)[C@H](CC(=O)O)NC(=O)[C@H](C)NC(=O)[C@H](CC(C)C)NC(=O)[C@H](CO)NC(=O)[C@@H](NC(=O)[C@H](CC(N)=O)NC(=O)[C@@H](NC(=O)[C@H](Cc1ccccc1)NC(=O)[C@@H](NC(=O)[C@H](CO)NC(=O)[C@H](CC(=O)O)NC(=O)[C@H](CCC(=O)O)NC(=O)[C@H](CCC(=O)O)NC(=O)[C@H](CCC(=O)O)NC(=O)[C@H](CCC(=O)O)NC(=O)[C@@H](N)CCCCN)[C@@H](C)OP(=O)(O)O)[C@@H](C)O)[C@@H](C)CC)C(=O)N[C@@H](CC(=O)O)C(=O)N[C@@H](Cc1c[nH]cn1)C(N)=O [pT13]
Kd [1]: 193 ± 29 µM
Kd [2]: 2 ± 0.2 µM
Kd [3]: 3.1 ± 0.3 µM
Kd [4]: 33.8 ± 2.6 µM
Kd [5]: 10.1 ± 1.5 µM
Kd [6]: 5 ± 0.5 µM

Kd ([3]; BLI, biotinylated LIR peptide on streptavidin biosensor, Tris pH 7.5, 25 °C, average ± standard error of fit, n = 2, Figure 1E, Suppl. Figure 2A, read-out: Kd GABARAP): 3.6 µM
SMILES: CC[C@H](C)[C@H](NC(=O)[C@H](CC(=O)O)NC(=O)[C@H](CC(=O)O)NC(=O)[C@H](C)NC(=O)[C@H](CC(C)C)NC(=O)[C@H](CO)NC(=O)[C@@H](NC(=O)[C@H](CC(N)=O)NC(=O)[C@@H](NC(=O)[C@H](Cc1ccccc1)NC(=O)[C@@H](NC(=O)[C@H](CO)NC(=O)[C@H](CC(=O)O)NC(=O)[C@H](CCC(=O)O)NC(=O)[C@H](CCC(=O)O)NC(=O)[C@H](CCC(=O)O)NC(=O)[C@H](CCC(=O)O)NC(=O)[C@@H](N)CCCCN)[C@@H](C)O)[C@@H](C)O)[C@@H](C)CC)C(=O)N[C@@H](CC(=O)O)C(=O)N[C@@H](Cc1c[nH]cn1)C(N)=O [SCOC WT]

SMILES: CC[C@H](C)[C@H](NC(=O)[C@H](CC(N)=O)NC(=O)[C@@H](NC(=O)[C@H](Cc1ccccc1)NC(=O)[C@@H](NC(=O)[C@H](CO)NC(=O)[C@H](CC(=O)O)NC(=O)[C@H](CCC(=O)O)NC(=O)[C@H](CCC(=O)O)NC(=O)[C@H](CCC(=O)O)NC(=O)[C@H](CCC(=O)O)NC(=O)[C@@H](N)CCCCN)[C@@H](C)O)[C@@H](C)O)C(=O)N[C@@H](COP(=O)(O)O)C(=O)N[C@@H](CC(C)C)C(=O)N[C@@H](C)C(N)=O [SCOC aa 6-20/pS18]
Kd [2, 13]: 3.8 ± 0.3 µM
Kd [3, 14]: 7.5 ± 0.8 µM
Kd [5, 15]: 33.3 ± 4.8 µM
Kd [6, 16]: 5 ± 0.5 µM

SMILES: CC[C@H](C)[C@H](NC(=O)[C@H](CC(=O)O)NC(=O)[C@H](CC(=O)O)NC(=O)[C@H](C)NC(=O)[C@H](CC(C)C)NC(=O)[C@H](CO)NC(=O)[C@@H](NC(=O)[C@H](CC(N)=O)NC(=O)[C@@H](NC(=O)[C@H](Cc1ccccc1)NC(=O)[C@@H](NC(=O)[C@H](COP(=O)(O)O)NC(=O)[C@H](CC(=O)O)NC(=O)[C@H](CCC(=O)O)NC(=O)[C@H](CCC(=O)O)NC(=O)[C@H](CCC(=O)O)NC(=O)[C@H](CCC(=O)O)NC(=O)[C@@H](N)CCCCN)[C@@H](C)O)[C@@H](C)O)[C@@H](C)CC)C(=O)N[C@@H](CC(=O)O)C(=O)N[C@@H](Cc1c[nH]cn1)C(N)=O [pS12]
Kd [1, 7]: 41.6 ± 4.6 µM
Kd [2, 8]: 0.88 ± 0.08 µM
Kd [3, 9]: 1.5 ± 0.1 µM
Kd [4, 10]: 12.8 ± 1.3 µM
Kd [5, 11]: 3 ± 0.4 µM
Kd [6, 12]: 1.4 ± 0.1 µM
